Experimental data taken from ChEMBL document CHEMBL1201862, “PubChem BioAssay data set” (2004).
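These data come from cells grown in 96-well plates and exposed to compound for 48 hours at five concentrations. GI50 marks 50% less growth.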 Calls of active or inactive are those of the source. Cut-off read from the data, not from the text of the source: active = GI50 up to about 1.1 µM and inactive = higher.

Assays:
Assay in all cases: NCI tumour cell line growth inhibition, 48 h
SK-MEL-5 = test system: SK-MEL-5
HCC 2998 = test system: HCC 2998
LOX IMVI = test system: LOX IMVI
SR = test system: SR
COLO 205 = test system: COLO 205
A498 = test system: A498
LXFL 529 = test system: LXFL 529
SN12C = test system: SN12C
HCT-15 = test system: HCT-15
SF-295 = test system: SF-295
786-0 = test system: 786-0
CAKI-1 = test system: CAKI-1
IGROV-1 = test system: IGROV-1
A549 = test system: A549
MDA-MB-231 = test system: MDA-MB-231
BT-549 = test system: BT-549
DU-145 = test system: DU-145
NCI/ADR-RES = test system: NCI/ADR-RES
T47D = test system: T47D
MDA-MB-435 = test system: MDA-MB-435

Row | SMILES | GI50 (SK-MEL-5) | GI50 (HCC 2998) | GI50 (LOX IMVI) | GI50 (SR) | GI50 (COLO 205) | GI50 (A498) | GI50 (LXFL 529) | GI50 (SN12C) | GI50 (HCT-15) [µM] | GI50 (SF-295) | GI50 (786-0) | GI50 (CAKI-1) | GI50 (IGROV-1) | GI50 (A549) | GI50 (MDA-MB-231) | GI50 (BT-549) | GI50 (DU-145) | GI50 (NCI/ADR-RES) | GI50 (T47D) | GI50 (MDA-MB-435)
1 | CCc1cccc(C)c1NC(=S)NC(=O)c1ccccc1C(=O)NC(=S)Nc1c(C)cccc1CC | > 100 µM (inactive) | 90.6 µM (inactive) | > 100 µM (inactive) | 38.4 µM (inactive) | 61.1 µM (inactive) | > 100 µM (inactive) | 85.5 µM (inactive) | > 100 µM (inactive) | > 100 | 57.7 µM (inactive) | > 100 µM (inactive) | 56.2 µM (inactive) | 93.8 µM (inactive) | 90.4 µM (inactive) | – | – | – | – | – | –
2 | CC(=O)Nc1ccc(C2=N/C(=C\c3ccc(Cl)cc3)C(=O)O2)cc1 | 77.8 µM (inactive) | 20 µM (inactive) | 18.4 µM (inactive) | 18.7 µM (inactive) | 39.2 µM (inactive) | > 100 µM (inactive) | 24.4 µM (inactive) | 28.2 µM (inactive) | 19.9 | > 100 µM (inactive) | 20.8 µM (inactive) | > 100 µM (inactive) | > 100 µM (inactive) | > 100 µM (inactive) | – | – | – | – | – | –
3 | Cc1cccc(C(C)(C)C)c1NC(=O)CCl | > 100 µM (inactive) | > 100 µM (inactive) | > 100 µM (inactive) | > 100 µM (inactive) | > 100 µM (inactive) | > 100 µM (inactive) | > 100 µM (inactive) | > 100 µM (inactive) | – | > 100 µM (inactive) | > 100 µM (inactive) | > 100 µM (inactive) | > 100 µM (inactive) | > 100 µM (inactive) | – | – | – | – | – | –
4 | CN(C)CCS/C(=N\c1ccccc1)N1CCCCC1 | 16.1 µM (inactive) | – | 16.3 µM (inactive) | 18.6 µM (inactive) | 15.2 µM (inactive) | – | 15.9 µM (inactive) | 17.7 µM (inactive) | 16.4 | 83 µM (inactive) | 16.3 µM (inactive) | 47.6 µM (inactive) | 16 µM (inactive) | 91.8 µM (inactive) | – | – | – | – | – | –
5 | CN(C)c1ncnc2c1Cc1ccccc1C(=O)N2C | > 100 µM (inactive) | > 100 µM (inactive) | > 100 µM (inactive) | > 100 µM (inactive) | > 100 µM (inactive) | – | > 100 µM (inactive) | > 100 µM (inactive) | – | > 100 µM (inactive) | > 100 µM (inactive) | > 100 µM (inactive) | > 100 µM (inactive) | > 100 µM (inactive) | – | – | – | – | – | –
6 | NC(=O)NCc1c(C(N)=O)ncn1Cc1ccccc1 | > 100 µM (inactive) | > 100 µM (inactive) | > 100 µM (inactive) | – | > 100 µM (inactive) | > 100 µM (inactive) | > 100 µM (inactive) | > 100 µM (inactive) | > 100 | > 100 µM (inactive) | > 100 µM (inactive) | > 100 µM (inactive) | > 100 µM (inactive) | > 100 µM (inactive) | – | – | – | – | – | –
7 | Cn1c(=O)c(C(c2ccccc2)c2c(O)c3ccccc3n(C)c2=O)c(O)c2ccccc21 | > 100 µM (inactive) | > 100 µM (inactive) | > 100 µM (inactive) | 45.5 µM (inactive) | > 100 µM (inactive) | – | > 100 µM (inactive) | > 100 µM (inactive) | > 10 | > 100 µM (inactive) | > 100 µM (inactive) | > 100 µM (inactive) | > 100 µM (inactive) | > 100 µM (inactive) | – | – | – | – | – | –
8 | Cc1ccc(/C=C/C(=O)C(C)C)cc1 | 50.9 µM (inactive) | > 100 µM (inactive) | – | 31.8 µM (inactive) | > 100 µM (inactive) | > 100 µM (inactive) | 33.8 µM (inactive) | – | – | 38.3 µM (inactive) | 55 µM (inactive) | – | 92 µM (inactive) | > 100 µM (inactive) | – | – | – | – | – | –
9 | CCOC(=O)c1cc(C(=O)O)c(=O)n2c1[nH]c1ccccc12 | 60.8 µM (inactive) | > 100 µM (inactive) | – | – | > 100 µM (inactive) | > 100 µM (inactive) | 75.7 µM (inactive) | > 100 µM (inactive) | 46.7 | > 100 µM (inactive) | > 100 µM (inactive) | > 100 µM (inactive) | 88.9 µM (inactive) | 60.8 µM (inactive) | – | – | – | – | – | –
10 | C=C1CC[C@@H]2C(C)(C)C(O)CCC2(C)C1COc1ccc2ccc(=O)oc2c1 (stereo partly drawn) | – | 19.9 µM (inactive) | 16.8 µM (inactive) | 23.6 µM (inactive) | 14.9 µM (inactive) | 19.9 µM (inactive) | 11.2 µM (inactive) | 16.3 µM (inactive) | 14.1 | 16.2 µM (inactive) | 21.5 µM (inactive) | – | 18.9 µM (inactive) | 17.2 µM (inactive) | – | – | – | – | – | –
11 | C/C(=N\NC(=S)N1CCC(C2CCN(C(=S)N/N=C(\C)c3ccccn3)CC2)CC1)c1ccccn1 | 62.4 µM (inactive) | > 100 µM (inactive) | 68.9 µM (inactive) | – | > 100 µM (inactive) | > 100 µM (inactive) | 55.3 µM (inactive) | 86.3 µM (inactive) | – | 71.3 µM (inactive) | 45.4 µM (inactive) | 68.1 µM (inactive) | 68.7 µM (inactive) | 55 µM (inactive) | – | – | – | – | – | –
12 | CSC(=S)N(C)NC(=O)c1cccc(C(=O)NN(C)C(=S)SC)n1 | 15.7 µM (inactive) | – | 31.4 µM (inactive) | 4.97 µM (inactive) | > 100 µM (inactive) | 28.2 µM (inactive) | 10.4 µM (inactive) | 22.2 µM (inactive) | 25.9 | 3.44 µM (inactive) | 19.4 µM (inactive) | – | 8.2 µM (inactive) | 14.8 µM (inactive) | – | – | – | – | – | –
13 | COC1CCC2C(=O)CCCC2O1 (stereo not drawn) | > 100 µM (inactive) | > 100 µM (inactive) | – | > 100 µM (inactive) | > 100 µM (inactive) | > 100 µM (inactive) | > 100 µM (inactive) | > 100 µM (inactive) | > 100 | > 100 µM (inactive) | > 100 µM (inactive) | > 100 µM (inactive) | > 100 µM (inactive) | > 100 µM (inactive) | – | – | – | – | – | –
14 | COC(=O)C1=C(C)N(NC(=O)c2ccccc2)C(C)(O)C12CCOC2=O (stereo not drawn) | – | > 100 µM (inactive) | > 100 µM (inactive) | – | > 100 µM (inactive) | > 100 µM (inactive) | > 100 µM (inactive) | > 100 µM (inactive) | > 100 | > 100 µM (inactive) | 0.195 µM (active) | > 100 µM (inactive) | > 100 µM (inactive) | > 100 µM (inactive) | – | – | – | – | – | –
15 | CCOC(=O)Cc1c(Cc2[nH]c(C(=O)OCc3ccccc3)c(CC(=O)OCC)c2CC(=O)OCC)[nH]c(C(=O)OCc2ccccc2)c1CC(=O)OCC | > 100 µM (inactive) | – | – | > 100 µM (inactive) | > 100 µM (inactive) | > 100 µM (inactive) | > 100 µM (inactive) | > 100 µM (inactive) | > 100 | > 100 µM (inactive) | > 100 µM (inactive) | > 100 µM (inactive) | > 100 µM (inactive) | > 100 µM (inactive) | – | – | – | – | – | –
16 | O=C1OC(Cl)C(N=P(c2ccccc2)(c2ccccc2)c2ccccc2)=C1Cl (stereo not drawn) | > 100 µM (inactive) | > 100 µM (inactive) | > 100 µM (inactive) | > 100 µM (inactive) | > 100 µM (inactive) | > 100 µM (inactive) | > 100 µM (inactive) | > 100 µM (inactive) | – | > 100 µM (inactive) | 80.4 µM (inactive) | > 100 µM (inactive) | > 100 µM (inactive) | > 100 µM (inactive) | – | – | – | – | – | –
17 | COc1ccc(C(=O)C(c2ccc(OC)cc2)C2(O)C(=O)Nc3ccccc32)cc1 (stereo not drawn) | – | – | 72.9 µM (inactive) | > 100 µM (inactive) | – | – | > 100 µM (inactive) | > 100 µM (inactive) | > 100 | > 100 µM (inactive) | > 100 µM (inactive) | > 100 µM (inactive) | > 100 µM (inactive) | > 100 µM (inactive) | – | – | – | – | – | –
18 | CC(C)(C)N(Cc1ccoc1)C(=O)/C=C\[S+]([O-])c1ccccc1 (stereo not drawn) | 13.4 µM (inactive) | 18.5 µM (inactive) | 5.45 µM (inactive) | 6.44 µM (inactive) | 22.3 µM (inactive) | 31 µM (inactive) | – | 20.9 µM (inactive) | 19.2 | 29.9 µM (inactive) | 19.8 µM (inactive) | 14.5 µM (inactive) | 15 µM (inactive) | 24.3 µM (inactive) | 20.2 µM (inactive) | 10.7 µM (inactive) | 12.5 µM (inactive) | 21.2 µM (inactive) | 14.6 µM (inactive) | 6.79 µM (inactive)
19 | CCc1cccc(C)c1NC(=O)C(=O)CC(=O)c1ccc(Cl)s1 | – | > 100 µM (inactive) | > 100 µM (inactive) | > 100 µM (inactive) | – | > 100 µM (inactive) | > 100 µM (inactive) | > 100 µM (inactive) | > 100 | > 100 µM (inactive) | > 100 µM (inactive) | > 100 µM (inactive) | > 100 µM (inactive) | > 100 µM (inactive) | – | – | – | – | – | –
20 | Cc1ccc2c3c(cnc2n1)C(=O)OCCN3C | > 100 µM (inactive) | > 100 µM (inactive) | > 100 µM (inactive) | > 100 µM (inactive) | > 100 µM (inactive) | > 100 µM (inactive) | – | > 100 µM (inactive) | > 100 | > 100 µM (inactive) | > 100 µM (inactive) | > 100 µM (inactive) | > 100 µM (inactive) | > 100 µM (inactive) | > 100 µM (inactive) | > 100 µM (inactive) | > 100 µM (inactive) | > 100 µM (inactive) | > 100 µM (inactive) | > 100 µM (inactive)
21 | CCN(CC)CCN1C=CC(C)C(C(=O)O)C1C(N)=O (stereo not drawn) | > 100 µM (inactive) | > 100 µM (inactive) | > 100 µM (inactive) | > 100 µM (inactive) | > 100 µM (inactive) | > 100 µM (inactive) | – | > 100 µM (inactive) | > 100 | > 100 µM (inactive) | > 100 µM (inactive) | > 100 µM (inactive) | > 100 µM (inactive) | > 100 µM (inactive) | > 100 µM (inactive) | > 100 µM (inactive) | > 100 µM (inactive) | > 100 µM (inactive) | > 100 µM (inactive) | > 100 µM (inactive)
